{"source": "patent US20170354655A1", "about": "“TLR INHIBITOR AND BRUTON'S TYROSINE KINASE INHIBITOR COMBINATIONS” (Pharmacyclics LLC, priority 2014, published 2017)", "format_in_all_cases": "cell-based", "key": {"OCI-LY10 cells": {"system": "OCI-LY10 cells", "assay": "Combined drug treatment, CellTiter-Glo cell viability assay in OCI-LY10 cell line", "conditions": "for synergy score for the chloroquine/ibrutinib combination: LY10 cells", "method": "(§1) A 40 μL aliquot of CellTiter-Glo® reagent was added directly into each well of the 96-W plate. The plate was then shaken on a Shaker (Labsystem Wellmix) at speed 5 for 10-20 min at room temperature. Next, about 100 μL of the mixed medium was transferred to a white, non-transparent, flat bottom 96-W plate for assaying. A Flexstation 3 luminometer was used for detecting and measuring the luminescent signals. Measurements were taken at room temperature.\n(§2) The luminescent measurements were subsequently processed and analyzed using CalcuSyn (CI) and Chalice Analyzer (synergy score). […] In general, the resulting combination index (CI) obtained from the Chou-Talalay method defines quantitatively for additive effect (CI=1), synergism (CI<1), and antagonism (CI>1) in drug combinations. […] Biotechnol.\n(§3) Cell growth effects were determined by the CellTiter-Glo® luminescent cell viability assay (Promega). The combination index (C.I.), a drug interactivity measurement was calculated with Calcusyn. Synergy scores were calculated by the Chalice Analyzer (Horizon CombinatoRx). ApoDETECT Annexin V-FITC Kit was used to detect apoptotic cell population. LC3B antibody (Cell Signaling) was used for Western blot analysis to detect autophagic marker LC3B-II. HBL-1 cells were plated in MethoCult (StemCell Technologies) and number of colonies was counted 7 days after drug treatment to determine the effect on colony formation. TLR related gene expression was determined by using RT^2 Profiler PCR Array (Qiagen)."}, "HBL1 cells": {"system": "HBL1 cells", "assay": "Combined drug treatment, CellTiter-Glo cell viability assay in HBL1 cell line", "method": "as §1, §2, §3"}, "TMD8 cells": {"system": "TMD8 cells", "assay": "Combined drug treatment, CellTiter-Glo cell viability assay in TMD8 cell line", "conditions": "for luminescent signal (CellTiter-Glo): test ODN 1 μM or chloroquine 10 μM, 3 days; for average CI value for the ibrutinib and chloroquine combination: CalcuSyn; for synergy score for the ibrutinib and chloroquine combination: Chalice Analyzer", "method": "200 μl of TMD8 wt cells (1.0×10^4 cells) at 5.0×10^4 cells/ml was plated into each well of a 96-well plate. The cells were grown in RPMI-10P medium.\nThe TLR9 antagonists used for this experiment included ODN 4084-F, ODN INH-1, ODN INH-18, and ODN TTAGGG. […] The TLR9 agonists used for this experiment included ODN 2006, ODN 2216, and ODN 2395. The TLR9 agonists were used to stimulate TLR signaling. Chloroquine is a non-specific TLR antagonist.\nThe stock solutions for the TLR9 antagonists and the TLR9 agonists were each prepared at 500 μM concentration. The stock solution for chloroquine diphosphate was prepared at 50 mM concentration.\nThe 96-W plate was then incubated for 3 days. Cell viability was examined using a CellTiter-Glo® assay.\nas §1\nCellTiter-Glo® reagents were thawed prior to use. Cells pre-plated onto a second 96-W plate and incubated at room temperature for 30 minutes were used for calibration purposes.\nThe luminescent measurements were subsequently processed and analyzed using CalcuSyn (CI) and Chalice Analyzer (synergy score). CalcuSyn performs the multiple drug dose-effect calculations using the Median Effect methods described by T-C Chou and P. Talalay in “Analysis of combined drug effects: a new look at a very old problem,” Trends Pharmacol. Sci. 4:450-454 (1983). In general, the resulting combination index (CI) obtained from the Chou-Talalay method defines quantitatively for additive effect (CI=1), synergism (CI<1), and antagonism (CI>1) in drug combinations. […] Biotechnol. 27(7):659-666 (2009).\nas §3"}}}
{"compound": "CCN(CC)CCCC(C)Nc1ccnc2cc(Cl)ccc12", "note": "(stereo not shown) [Chloroquine, chloroquine]", "values": [{"measurement": "CI value for the chloroquine/ibrutinib combination", "setting": "OCI-LY10 cells; LY10, with agonist ODN2216", "value": 0.59}, {"measurement": "CI value for the chloroquine/ibrutinib combination", "setting": "OCI-LY10 cells; LY10, without agonist ODN2216", "value": 0.50}, {"measurement": "synergy score for the chloroquine/ibrutinib combination", "setting": "OCI-LY10 cells; with agonist ODN2216", "value": 2.63}, {"measurement": "synergy score for the chloroquine/ibrutinib combination", "setting": "OCI-LY10 cells; without agonist ODN2216", "value": 2.44}, {"measurement": "synergy with ibrutinib (in words)", "setting": "OCI-LY10 cells; OCI-LY10 cells", "value": "Synergy was observed"}, {"measurement": "synergy with ibrutinib (in words)", "setting": "HBL1 cells", "value": "Synergy was observed"}, {"measurement": "CI value for the chloroquine/ibrutinib combination", "setting": "HBL1 cells; with agonist ODN2216", "value": 0.35}, {"measurement": "synergy score for the chloroquine/ibrutinib combination", "setting": "HBL1 cells; with agonist ODN2216", "value": 3.5}, {"measurement": "CI value for the chloroquine/ibrutinib combination", "setting": "HBL1 cells; without agonist ODN2216", "value": 0.56}, {"measurement": "synergy score for the chloroquine/ibrutinib combination", "setting": "HBL1 cells; without agonist ODN2216", "value": 3.03}, {"measurement": "luminescent signal (CellTiter-Glo)", "setting": "TMD8 cells; Control (no TLR9 agonist), ibrutinib 0 nM", "value": 275515}, {"measurement": "luminescent signal (CellTiter-Glo)", "setting": "TMD8 cells; Control (no TLR9 agonist), ibrutinib 0.0003 nM", "value": 264724}, {"measurement": "luminescent signal (CellTiter-Glo)", "setting": "TMD8 cells; Control (no TLR9 agonist), ibrutinib 0.0013 nM", "value": 265058}, {"measurement": "luminescent signal (CellTiter-Glo)", "setting": "TMD8 cells; Control (no TLR9 agonist), ibrutinib 0.0064 nM", "value": 271348}, {"measurement": "luminescent signal (CellTiter-Glo)", "setting": "TMD8 cells; Control (no TLR9 agonist), ibrutinib 0.032 nM", "value": 276679}, {"measurement": "luminescent signal (CellTiter-Glo)", "setting": "TMD8 cells; Control (no TLR9 agonist), ibrutinib 0.16 nM", "value": 250469}, {"measurement": "luminescent signal (CellTiter-Glo)", "setting": "TMD8 cells; Control (no TLR9 agonist), ibrutinib 0.8 nM", "value": 177291}, {"measurement": "luminescent signal (CellTiter-Glo)", "setting": "TMD8 cells; Control (no TLR9 agonist), ibrutinib 4 nM", "value": 86168}, {"measurement": "luminescent signal (CellTiter-Glo)", "setting": "TMD8 cells; Control (no TLR9 agonist), ibrutinib 20 nM", "value": 78916}, {"measurement": "luminescent signal (CellTiter-Glo)", "setting": "TMD8 cells; Control (no TLR9 agonist), ibrutinib 100 nM", "value": 61700}, {"measurement": "luminescent signal (CellTiter-Glo)", "setting": "TMD8 cells; TLR9 agonist ODN 2006 1 μM, ibrutinib 0 nM", "value": 275829}, {"measurement": "luminescent signal (CellTiter-Glo)", "setting": "TMD8 cells; TLR9 agonist ODN 2006 1 μM, ibrutinib 0.0003 nM", "value": 258871}, {"measurement": "luminescent signal (CellTiter-Glo)", "setting": "TMD8 cells; TLR9 agonist ODN 2006 1 μM, ibrutinib 0.0013 nM", "value": 250534}, {"measurement": "luminescent signal (CellTiter-Glo)", "setting": "TMD8 cells; TLR9 agonist ODN 2006 1 μM, ibrutinib 0.0064 nM", "value": 249082}, {"measurement": "luminescent signal (CellTiter-Glo)", "setting": "TMD8 cells; TLR9 agonist ODN 2006 1 μM, ibrutinib 0.032 nM", "value": 239360}, {"measurement": "luminescent signal (CellTiter-Glo)", "setting": "TMD8 cells; TLR9 agonist ODN 2006 1 μM, ibrutinib 0.16 nM", "value": 247058}, {"measurement": "luminescent signal (CellTiter-Glo)", "setting": "TMD8 cells; TLR9 agonist ODN 2006 1 μM, ibrutinib 0.8 nM", "value": 138546}, {"measurement": "luminescent signal (CellTiter-Glo)", "setting": "TMD8 cells; TLR9 agonist ODN 2006 1 μM, ibrutinib 4 nM", "value": 79843}, {"measurement": "luminescent signal (CellTiter-Glo)", "setting": "TMD8 cells; TLR9 agonist ODN 2006 1 μM, ibrutinib 20 nM", "value": 67694}, {"measurement": "luminescent signal (CellTiter-Glo)", "setting": "TMD8 cells; TLR9 agonist ODN 2006 1 μM, ibrutinib 100 nM", "value": 62288}, {"measurement": "luminescent signal (CellTiter-Glo)", "setting": "TMD8 cells; TLR9 agonist ODN 2216 1 μM, ibrutinib 0 nM", "value": 203015}, {"measurement": "luminescent signal (CellTiter-Glo)", "setting": "TMD8 cells; TLR9 agonist ODN 2216 1 μM, ibrutinib 0.0003 nM", "value": 193567}, {"measurement": "luminescent signal (CellTiter-Glo)", "setting": "TMD8 cells; TLR9 agonist ODN 2216 1 μM, ibrutinib 0.0013 nM", "value": 229545}, {"measurement": "luminescent signal (CellTiter-Glo)", "setting": "TMD8 cells; TLR9 agonist ODN 2216 1 μM, ibrutinib 0.0064 nM", "value": 200219}, {"measurement": "luminescent signal (CellTiter-Glo)", "setting": "TMD8 cells; TLR9 agonist ODN 2216 1 μM, ibrutinib 0.032 nM", "value": 199458}, {"measurement": "luminescent signal (CellTiter-Glo)", "setting": "TMD8 cells; TLR9 agonist ODN 2216 1 μM, ibrutinib 0.16 nM", "value": 207276}, {"measurement": "luminescent signal (CellTiter-Glo)", "setting": "TMD8 cells; TLR9 agonist ODN 2216 1 μM, ibrutinib 0.8 nM", "value": 115898}, {"measurement": "luminescent signal (CellTiter-Glo)", "setting": "TMD8 cells; TLR9 agonist ODN 2216 1 μM, ibrutinib 4 nM", "value": 65959}, {"measurement": "luminescent signal (CellTiter-Glo)", "setting": "TMD8 cells; TLR9 agonist ODN 2216 1 μM, ibrutinib 20 nM", "value": 48838}, {"measurement": "luminescent signal (CellTiter-Glo)", "setting": "TMD8 cells; TLR9 agonist ODN 2216 1 μM, ibrutinib 100 nM", "value": 44662}, {"measurement": "luminescent signal (CellTiter-Glo)", "setting": "TMD8 cells; TLR9 agonist ODN 2395 1 μM, ibrutinib 0 nM", "value": 170080}, {"measurement": "luminescent signal (CellTiter-Glo)", "setting": "TMD8 cells; TLR9 agonist ODN 2395 1 μM, ibrutinib 0.0003 nM", "value": 168027}, {"measurement": "luminescent signal (CellTiter-Glo)", "setting": "TMD8 cells; TLR9 agonist ODN 2395 1 μM, ibrutinib 0.0013 nM", "value": 177301}, {"measurement": "luminescent signal (CellTiter-Glo)", "setting": "TMD8 cells; TLR9 agonist ODN 2395 1 μM, ibrutinib 0.0064 nM", "value": 170957}, {"measurement": "luminescent signal (CellTiter-Glo)", "setting": "TMD8 cells; TLR9 agonist ODN 2395 1 μM, ibrutinib 0.032 nM", "value": 167073}, {"measurement": "luminescent signal (CellTiter-Glo)", "setting": "TMD8 cells; TLR9 agonist ODN 2395 1 μM, ibrutinib 0.16 nM", "value": 156507}, {"measurement": "luminescent signal (CellTiter-Glo)", "setting": "TMD8 cells; TLR9 agonist ODN 2395 1 μM, ibrutinib 0.8 nM", "value": 100658}, {"measurement": "luminescent signal (CellTiter-Glo)", "setting": "TMD8 cells; TLR9 agonist ODN 2395 1 μM, ibrutinib 4 nM", "value": 69482}, {"measurement": "luminescent signal (CellTiter-Glo)", "setting": "TMD8 cells; TLR9 agonist ODN 2395 1 μM, ibrutinib 20 nM", "value": 59032}, {"measurement": "luminescent signal (CellTiter-Glo)", "setting": "TMD8 cells; TLR9 agonist ODN 2395 1 μM, ibrutinib 100 nM", "value": 55950}, {"measurement": "synergy with ibrutinib (in words)", "setting": "TMD8 cells; TMD8 cells, whether or not TLR agonist was present", "value": "Synergy was observed"}, {"measurement": "average CI value for the ibrutinib and chloroquine combination", "setting": "TMD8 cells; TMD8 cells, with agonists", "value": 0.11}, {"measurement": "synergy score for the ibrutinib and chloroquine combination", "setting": "TMD8 cells; TMD8 cells, with agonists", "value": 4.22}, {"measurement": "average CI value for the ibrutinib and chloroquine combination", "setting": "TMD8 cells; TMD8 cells, without agonists", "value": 0.40}, {"measurement": "synergy score for the ibrutinib and chloroquine combination", "setting": "TMD8 cells; TMD8 cells, without agonists", "value": 3.48}]}
